Experiment [1] concerns the target T1, Dmel\Orco (Drosophila melanogaster, UniProt Q9VNB5).
T1 construct: expressed in transfected cells; host or cells: Xenopus laevis oocytes (cRNA injection, pGEMHE)
T1 sequence (Q9VNB5 1-486): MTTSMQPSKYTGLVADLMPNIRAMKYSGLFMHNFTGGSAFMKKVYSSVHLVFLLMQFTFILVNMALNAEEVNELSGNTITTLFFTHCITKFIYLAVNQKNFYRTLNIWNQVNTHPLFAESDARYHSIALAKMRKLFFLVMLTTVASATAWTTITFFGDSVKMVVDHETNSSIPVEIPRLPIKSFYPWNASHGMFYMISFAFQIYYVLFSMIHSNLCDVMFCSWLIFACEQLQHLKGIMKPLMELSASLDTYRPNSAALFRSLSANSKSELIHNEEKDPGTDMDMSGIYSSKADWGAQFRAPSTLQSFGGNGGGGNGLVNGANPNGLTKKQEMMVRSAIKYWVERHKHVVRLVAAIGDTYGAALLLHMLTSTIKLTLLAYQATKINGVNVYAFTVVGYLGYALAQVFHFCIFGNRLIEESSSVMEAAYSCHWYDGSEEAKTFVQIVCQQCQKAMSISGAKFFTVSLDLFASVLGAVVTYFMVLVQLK
In words: Agonist activation of homomeric Dmel\Orco in Xenopus oocytes, two-electrode voltage clamp. Format: cell-based. The following applies: read-out: Response amplitude as percentage of response to 100 µM OLC3, Dmel\Orco. As to the method:
(§1) Oocytes were surgically removed from mature Xenopus laevis frogs. Follicle cells were removed by treatment with Collagenase B (Boehringer Mannhem) for 2 hours at room temperature. Capped cRNA encoding each DmOR subunit was generated using mMessage mMachine kits (Ambion). For heteromeric ORs, 25 ng of cRNA encoding each OR subunit was injected into Stage V-VI Xenopus oocytes. For expression of Orco alone, 50 ng of cRNA was injected. Oocytes were incubated at 18°C in Barth’s saline (in mM: 88 NaCl, 1 KCl, 2.4 NaHCO3, 0.3 CaNO3, 0.41 CaCl2, 0.82 MgSO4, 15 HEPES, pH 7.6, and 150 µg/ml ceftazidime) for 2–5 days prior to electrophysiological recording.
(§2) Odorant and Orco ligand induced currents were recorded under two-electrode voltage clamp in Xenopus laevis oocytes expressing ORs, using an automated parallel electrophysiology system (OpusExpress 6000A; Molecular Devices). Oocytes were perfused with ND96 (in mM: 96 NaCl, 2 KCl, 1 CaCl2, 1 MgCl2, 5 HEPES, pH 7.5). Odorant stock solutions (0.5 or 1 M) and Orco ligand stock solutions (100 mM) were prepared in DMSO and diluted in ND96. Unless otherwise noted, applications were for 60 sec at a flow rate of 1.0 ml/min, with extensive washing in ND96 (9 or 20 min at 4.6 ml/min) between applications. Micropipettes were filled with 3 M KCl and had resistances of 0.2−2.0 MΩ. The holding potential was −70 mV. Current responses, filtered (4-pole, Bessel, low pass) at 20 Hz (−3 db) and sampled at 100 Hz, were captured and stored using OpusXpress 1.1 software (Molecular Devices).
(§3) Initial analysis of electrophysiological data was done using Clampfit 9.1 software (Molecular Devices). Curve fitting and statistical analyses were done using Prism 5 (Graphpad). Concentration-response data were fit to the equation: I = Imax/(1+(EC50/X)^n) where I represents the current response at a given concentration of odorant, X; Imax is the maximal response; EC50 is the concentration of agonist yielding a half maximal response; n is the apparent Hill coefficient. Concentration-inhibition data were fit to the equation: I = Imax/(1+(X/IC50)^n) where I represents the current response at a given concentration of inhibitor, X; Imax is the maximal response in the absence of inhibitor; IC50 is the concentration of inhibitor present that still allows a half maximal response from odorant; n is the apparent Hill coefficient. Statistical significance was assessed using a two-tailed unpaired t test, an F test, or a one-way analysis of variance followed by the Bonferroni’s post-test, as appropriate.
For orientation: In two-electrode clamp one electrode senses voltage and the other passes current.

For the next experiment, the system named is Cqui\Orco. In words: Agonist activation of homomeric Cqui\Orco in Xenopus oocytes, two-electrode voltage clamp. The class given is cell-based, Culex quinquefasciatus. The following applies: 100 µM compound; mean ± SEM, n=3-8.
In experiment [2] the target is T1, Dmel\Orco. In words: Inhibition of OLC12 activation of Dmel\Orco in Xenopus oocytes. The class given is cell-based. The conditions noted are these: for IC50: activated by 30 µM OLC12 (EC39). On the procedure:
as §1, §2
In inhibition assays, oocytes were exposed to 60 sec applications of OLC12 with 9 min washes between applications (Fig. 3 and 4) or 60 sec applications of odorant with 20 min washes between applications (Fig. 5). Oocytes were then exposed to a 90 sec application of antagonist candidate, immediately followed by a 60 sec co-application of antagonist candidate and OLC12 or odorant. Oocytes were then exposed to a final 60 sec application of OLC12 or odorant. The current response in the presence of antagonist candidate was compared to the preceding response(s) to OLC12 (or odorant) alone.
as §3

In the next experiment the target is Cqui\Orco + Cqui\Or10 (Culex quinquefasciatus, UniProt D5LMR7+Q309I4). In words: Inhibition of odorant (3-methylindole) activation of Cqui\Orco + Cqui\Or10 in Xenopus oocytes. The class given is cell-based. The conditions noted are these: for Inhibition of activation of Cqui\Orco+Cqui\Or10 by 3-methylindole: 100 nM 3-methylindole, OLC compound 100 µM.
Sequence of Cqui\Orco + Cqui\Or10 (D5LMR7 entry or part of it): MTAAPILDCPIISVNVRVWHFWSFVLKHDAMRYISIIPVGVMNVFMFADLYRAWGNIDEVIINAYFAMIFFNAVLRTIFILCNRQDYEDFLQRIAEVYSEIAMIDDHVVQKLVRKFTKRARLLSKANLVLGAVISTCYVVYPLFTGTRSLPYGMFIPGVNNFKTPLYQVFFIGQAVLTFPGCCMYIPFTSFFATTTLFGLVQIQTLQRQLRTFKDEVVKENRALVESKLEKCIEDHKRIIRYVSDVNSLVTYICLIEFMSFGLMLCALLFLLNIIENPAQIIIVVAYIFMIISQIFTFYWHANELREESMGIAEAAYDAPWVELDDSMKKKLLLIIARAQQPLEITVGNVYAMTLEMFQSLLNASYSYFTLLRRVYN
Sequence of Cqui\Orco + Cqui\Or10 (Q309I4 entry or part of it): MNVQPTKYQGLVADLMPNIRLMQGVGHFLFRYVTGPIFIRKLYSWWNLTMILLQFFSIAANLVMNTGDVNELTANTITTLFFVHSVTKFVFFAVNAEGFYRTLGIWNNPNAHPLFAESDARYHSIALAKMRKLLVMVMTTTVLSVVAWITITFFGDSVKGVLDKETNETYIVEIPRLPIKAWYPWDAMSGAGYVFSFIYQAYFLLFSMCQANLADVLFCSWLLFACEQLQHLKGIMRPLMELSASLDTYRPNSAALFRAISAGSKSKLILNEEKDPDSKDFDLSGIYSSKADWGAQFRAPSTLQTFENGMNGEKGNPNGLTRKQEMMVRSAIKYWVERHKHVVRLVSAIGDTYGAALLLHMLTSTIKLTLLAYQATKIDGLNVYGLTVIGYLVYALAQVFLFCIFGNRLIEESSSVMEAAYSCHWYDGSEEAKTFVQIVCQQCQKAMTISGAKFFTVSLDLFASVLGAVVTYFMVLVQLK
The next experiment addresses T2, Agam\Orco + Agam\Or65 (Anopheles gambiae, UniProt Q7QCC7).
T2 construct: expressed in transfected cells; host or cells: Xenopus laevis oocytes (cRNA injection; vectors pSP64T-Oligo and pT7TS)
T2 sequence (Q7QCC7 1-478): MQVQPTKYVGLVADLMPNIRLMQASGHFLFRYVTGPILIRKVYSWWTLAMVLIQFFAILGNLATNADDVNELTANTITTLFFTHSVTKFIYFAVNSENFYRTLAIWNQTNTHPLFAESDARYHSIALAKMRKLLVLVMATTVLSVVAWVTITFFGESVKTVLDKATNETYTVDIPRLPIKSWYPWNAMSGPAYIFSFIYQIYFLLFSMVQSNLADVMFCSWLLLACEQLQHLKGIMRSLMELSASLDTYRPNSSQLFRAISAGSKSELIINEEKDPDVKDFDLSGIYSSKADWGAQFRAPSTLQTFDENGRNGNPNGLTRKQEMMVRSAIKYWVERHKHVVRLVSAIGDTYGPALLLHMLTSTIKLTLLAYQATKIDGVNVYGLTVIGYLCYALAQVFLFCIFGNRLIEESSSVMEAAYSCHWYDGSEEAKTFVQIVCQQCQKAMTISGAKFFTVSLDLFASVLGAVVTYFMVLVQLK
In words: Inhibition of odorant (eugenol) activation of Agam\Orco + Agam\Or65 in Xenopus oocytes. The following applies: 100 nM eugenol; OLC compound 100 µM. Format: cell-based, A. gambiae.

The next experiment relates to Onub\Orco + Onub\Or1. In words: Inhibition of odorant (E12-14:OAc) activation of Onub\Orco + Onub\Or1 in Xenopus oocytes. Format: cell-based, Ostrinia nubilalis. The following applies: OLC compound 100 µM. As to the method:
as §1
Odorant and Orco ligand induced currents were recorded under two-electrode voltage clamp in Xenopus laevis oocytes expressing ORs, using an automated parallel electrophysiology system (OpusExpress 6000A; Molecular Devices). Oocytes were perfused with ND96 (in mM: 96 NaCl, 2 KCl, 1 CaCl2, 1 MgCl2, 5 HEPES, pH 7.5). Odorant stock solutions (0.5 or 1 M) and Orco ligand stock solutions (100 mM) were prepared in DMSO and diluted in ND96. […]
Initial analysis of electrophysiological data was done using Clampfit 9.1 software (Molecular Devices). […] Statistical significance was assessed using a two-tailed unpaired t test, an F test, or a one-way analysis of variance followed by the Bonferroni’s post-test, as appropriate.

Read-outs that look alike come from different tables or passages of the source.

This note sets out measurements from paper PMC3348135, “Identification of New Agonists and Antagonists of the Insect Odorant Receptor Co-Receptor Subunit” (PLoS ONE, 2012).

As for `CCc1ccc(NC(=O)CSc2nnc(-c3ccccn3)n2CC)cc1` [OLC2], the Emax at 100 µM at Dmel\Orco [1] was 0%. Also, the “Response amplitude as percentage of response to 100 µM OLC3, Cqui\Orco” value in the experiment with Cqui\Orco came to 0%. Moreover, the “Inhibition of activation of Dmel\Orco by 30 µM OLC12 on co-application” value on Dmel\Orco [2] (100 µM compound co-applied with 30 µM OLC12) is “inhibits”. The IC50 on Dmel\Orco [2] is 23 ± 3 µM. Further, at Cqui\Orco + Cqui\Or10, the “Inhibition of activation of Cqui\Orco+Cqui\Or10 by 3-methylindole” value was “inhibited”. The “Inhibition of activation of Agam\Orco+Agam\Or65 by eugenol” value at Agam\Orco + Agam\Or65 is on record as “inhibited”. Moreover, the “Inhibition of activation of Onub\Orco+Onub\Or1 by E12-14:OAc” value in the experiment with Onub\Orco + Onub\Or1 is reported as “inhibited”.

As for `CCCCc1ccc(NC(=O)CSc2nnc(-c3ccccn3)n2CC)cc1` [OLC15], the Emax at 100 µM on Dmel\Orco [1] came out at 0%. The “Response amplitude as percentage of response to 100 µM OLC3, Cqui\Orco” value in the experiment on Cqui\Orco is on record as 0%. In addition, the 50% inhibitory concentration (IC50) came out at 15 ± 2 µM against Dmel\Orco [2]; 1.5 ± 0.2 µM on Cqui\Orco + Cqui\Or10 (activated by 10 nM 3-methylindole (EC10), read-out: IC50 for inhibition of responses to 10 nM 3-MI); 2 ± 0.3 µM on Cqui\Orco + Cqui\Or10 (activated by 100 nM 3-methylindole (EC53), read-out: IC50 for inhibition of responses to 100 nM 3-MI). Besides, at Cqui\Orco + Cqui\Or10, the “Inhibition of activation of Cqui\Orco+Cqui\Or10 by 3-methylindole” value is on record as “inhibited”. The “Inhibition of activation of Agam\Orco+Agam\Or65 by eugenol” value at Agam\Orco + Agam\Or65 was “inhibited”. Also, in the experiment on Onub\Orco + Onub\Or1, the “Inhibition of activation of Onub\Orco+Onub\Or1 by E12-14:OAc” value is “inhibited”.

Broadly, the IC50 is the midpoint of a concentration-inhibition curve.
